Test results taken from US12319946B2, “Methods for producing modified bacteria for production of nitroaromatics” (priority 2018, dated 2025).
“Also recorded” adds a separate entry of the source.

Legend:
[1] = tested on: E. coli BL21 Gold cells expressing TB14, BsNOS and GDH; experiment: Whole-cell biotransformation (whole cell nitration system, Example 2/278); assay type: cell-based, Escherichia coli; conditions: TB medium, analogue fed as substrate
Method: For analytical analysis, an HPLC column was kept at 40° C., water with 0.1% formic acid was used as solvent A and acetonitrile with 0.1% formic acid was used as solvent B. The column was eluted first with 1% solvent B for 1 min and then with a linear gradient of 1-20% solvent B in 8 min, followed by another linear gradient of 20-99% solvent B in 2 min. The column was further cleaned with 99% solvent B for 2 min and then re-equilibrated with 1% solvent B for 2 min. The flow rate was set as 1 ml/min, and the products were detected at […] with a PDA detector.
E. coli BL21 Gold cells containing pETDuet and pET28b derived plasmids were grown from glycerol stock overnight in 5 mL Luria broth with 0.1 mg/mL ampicillin and 0.05 mg/mL kanamycin (37° C., 250 rpm). The pre-culture was used to inoculate 100 mL of Terrific broth medium (0.1 mg/mL ampicillin and 0.05 mg/mL kanamycin) in a 500 mL flask; this culture was incubated at 37° C., 250 rpm to OD600=0.6-0.8. The cultures were cooled on water-ice mixture and induced with 0.5 mM IPTG, Expression was conducted at 18° C., 250 rpm, for 20 h. For the culture of E. coli BL21 Gold cells containing pACYCDuet and pET28b derived plasmids, 0.05 mg/mL chloramphenicol was used instead of 0.05 mg/mL kanamycin. The cultures were then harvested and resuspended to OD600=30 in test medium, Aliquots of the cell suspension were used in the whole cell transformation. To a test tube was added 5 mL cell suspension, 25 μL 100 mM L-Trp or L-Trp analogues, and 25 μL 100 mM L-Arg when necessary. The mixture was then incubated at different conditions. The reactions were quenched by adding equal volume of methanol and the resulting mixture was aliquoted and transferred to a microcentrifuge tube and centrifuged at 14,000 rpm for 10 minutes. The supernatant was transferred to an HPLC vial and analyzed by LC-MS.

[2] = tested on: E. coli BL21-GOLD (DE3) carrying Nitrotrp pathways (TB14, BsNOS, GDH); assay type: cell-based, Escherichia coli; conditions: for nitration of fed analog by E. coli-II: 5 mM analog fed to fermentation medium of E. coli-II
[3] = target: T1, TnaA (Escherichia coli, UniProt P0A853); experiment: TnaA assay (in vitro, recombinant tryptophanase); assay type: biochemical, E. coli; conditions: 0.1 μM purified TnaA, 0.5 mM substrate, 37° C., 10 min
T1 construct: made in house; host or cells: E. coli BL21-GOLD (DE3)
Method: The reactions contained 0.1 μM purified TnaA and 0.5 mM substrate and incubated at 37° C. for 10 min. No 4-nitro indole was produced in the enzyme reaction.
PCR amplicons were analyzed by agarose gel and extracted with GeneJET Gel Extraction Kit (Thermo). Purified PCR products and pET28b were digested with corresponding restriction enzymes, purified and then ligated to create expression constructs. Insert in the construct was sequenced to exclude potential errors introduced during PCR amplification and gene manipulation. Recombinant TnaA was prepared in E. coli BL21-GOLD (DE3). The enzyme assay (0.1 mL) contained 100 mM potassium phosphate buffer (pH 8.3), 0.2 mM pyridoxal 5-phosphate and 0.1 μM purified tnaA. The reaction mixtures were pre-warmed at 37° C. for 5 minutes, and initiated by adding 0.5 mM 1-Trp or Nitrotrp as substrate. After 10 minutes, the reactions were quenched by mixing well with 0.2 mL of methanol. After centrifugation at 14,000 rpm for 30 minutes, the supernatant was subject to HPLC analysis. All experiments were independently repeated at least twice.

T1 sequence (P0A853 whole entry): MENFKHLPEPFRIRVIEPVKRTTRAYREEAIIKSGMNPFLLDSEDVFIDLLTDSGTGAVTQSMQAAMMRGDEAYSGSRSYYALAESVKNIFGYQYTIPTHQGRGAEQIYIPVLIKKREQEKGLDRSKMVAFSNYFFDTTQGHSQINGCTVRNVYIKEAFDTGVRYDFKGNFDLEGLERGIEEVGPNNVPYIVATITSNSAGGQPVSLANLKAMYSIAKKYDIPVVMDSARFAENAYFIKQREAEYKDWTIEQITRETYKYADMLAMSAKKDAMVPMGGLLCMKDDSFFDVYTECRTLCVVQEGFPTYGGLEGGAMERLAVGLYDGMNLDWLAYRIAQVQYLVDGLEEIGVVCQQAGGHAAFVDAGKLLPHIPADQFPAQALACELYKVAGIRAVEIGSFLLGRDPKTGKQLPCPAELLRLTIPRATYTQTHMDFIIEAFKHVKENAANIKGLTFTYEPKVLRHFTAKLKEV

Compound | nitration of tryptophan analogue by whole cell nitration system [1] | nitration of fed analog by E. coli-II [2] | conversion rates in whole cell-based nitration [1] | conversion/decomposition by recombinant TnaA [3] | nitration activity of the strain toward substrate (rank) ([2]; 5 mM analog fed to E. coli-II)
N[C@@H](Cc1c[nH]c2cccc(F)c12)C(=O)O [Example 4-F-Trp, 4-F-Trp] | successfully nitrated | nitrated |  |  | 
Cc1cccc2[nH]cc(C[C@H](N)C(=O)O)c12 [Example 4-Me-Trp, 4-Me-Trp] | successfully nitrated | nitrated | highest conversion rates |  | 
N[C@@H](Cc1c[nH]c2cccc([N+](=O)[O-])c12)C(=O)O [Example 4-NO2-L-Trp, 4-NO2-L-Trp] |  |  |  | not able to decompose | 
N[C@@H](Cc1c[nH]c2ccc(F)cc12)C(=O)O [Example 5-F-Trp, 5-F-Trp] | successfully nitrated | nitrated | highest conversion rates |  | 
Cc1ccc2[nH]cc(C[C@H](N)C(=O)O)c2c1 [Example 5-Me-Trp, 5-Me-Trp] | successfully nitrated | nitrated | highest conversion rates |  | highest nitration activity
COc1ccc2[nH]cc(C[C@H](N)C(=O)O)c2c1 [Example 5-MeO-Trp, 5-MeO-Trp] | successfully nitrated | nitrated |  |  | 
N[C@@H](Cc1c[nH]c2cc(F)ccc12)C(=O)O [Example 6-F-Trp, 6-F-Trp] | successfully nitrated | nitrated |  |  | 
Cc1cccc2c(C[C@H](N)C(=O)O)c[nH]c12 [Example 7-Me-Trp, 7-Me-Trp] | successfully nitrated | nitrated |  |  | 
N[C@@H](Cc1c[nH]c2ccccc12)C(=O)O [L-Trp, L-tryptophan] |  |  |  | produced indole | 
N[C@@H](Cc1c[nH]c2cccc([N+](=O)[O-])c12)C(=O)O [Nitrotrp] |  |  |  | does not convert; also recorded: not observed | 
C[C@](N)(Cc1c[nH]c2ccccc12)C(=O)O [α-Me-Trp] | successfully nitrated | nitrated |  |  | 
